# Experimental data: the supplement of paper PMC10933113
# Structures can show the parent of a compound that is named as a salt. ± gives the uncertainty stated by the source.
# Assays:
# THP-1 [1] = experiment: AC50 of IL-8 secretion induction; higher = less potent; settings: exposure time: 18 h
# [2] = system: KeratinoSens (HaCaT ARE-luciferase) cells; experiment: cytotoxicity AC50 (CellTiter-Fluor viability); higher = less cytotoxic; settings: exposure time: 24 h
# THP-1 [3] = experiment: efficacy of IL-8 induction relative to DMSO (% activity); higher = stronger induction; settings: exposure time: 18 h
# [4] = system: lysine peptide Ac-RFAAKAA-COOH; experiment: efficacy of lysine peptide change (negative = depletion) (% activity); higher = less depletion; settings: incubation time: 24 h
# [5] = system: cysteine peptide Ac-RFAACAA-COOH; experiment: efficacy of cysteine peptide change (negative = depletion) (% activity); higher = less depletion; settings: incubation time: 24 h
# [6] = system: KeratinoSens (HaCaT ARE-luciferase) cells; experiment: efficacy of ARE luciferase induction relative to DMSO (% activity over DMSO); higher = stronger induction; settings: exposure time: 24 h
# [7] = system: cysteine peptide Ac-RFAACAA-COOH; experiment: AC50 of cysteine peptide concentration-response (direction given by sign of efficacy); higher = less potent; settings: incubation time: 24 h
# [8] = system: KeratinoSens (HaCaT ARE-luciferase) cells; experiment: AC50 of Nrf2/ARE luciferase induction; higher = less potent; settings: exposure time: 24 h
Structure (SMILES),AC50 of IL-8 secretion induction (THP-1 [1]) [µM],cytotoxicity AC50 [2] [µM],efficacy of IL-8 induction (THP-1 [3]),efficacy of lysine peptide change [4],efficacy of cysteine peptide change [5],efficacy of ARE luciferase induction [6],AC50 [7] [µM],AC50 of Nrf2/ARE luciferase induction [8] [µM]
CN(C)c1ccc(C(=C2C=CC(=[N+](C)C)C=C2)c2ccccc2)cc1 [Malachite green oxalate*],15.3,8.91,47.7 ± 7.8,36.4 ± 15,-94.9 ± 1.7,-37.3 ± 7.1,4.18 ± 2,–
CCCOc1ccc2[nH]c(NC(=O)OC)nc2c1 [Oxibendazole],27.7,2.73 ± 0.38,36.3 ± 9.3,50.4 ± 6.8,0,30.2 ± 9.6,–,–
CC(C)CP(=S)(S)CC(C)C [Sodium bis(2-methylpropyl)phosphinodithioate],38.4,21.1 ± 9.9,82.4 ± 10,108 ± 18,-92.6 ± 1.4,168 ± 27,76.5 ± 25,–
N=C1C=CC(=C(c2ccc(N)cc2)c2ccc(N)cc2)C=C1 [C.I. Basic Red 9 monohydrochloride],44.7,34.2 ± 2.2,100 ± 9.3,182 ± 33,-58.7 ± 20,38.6 ± 64,38.4 ± 2.5,–
"O=[N+]([O-])c1cc(C(F)(F)F)c(Cl)c([N+](=O)[O-])c1Cl [2,4-Dichloro-1,3-dinitro-5-(trifluoromethyl)benzene]",17.2,26.1 ± 1.8,64.7 ± 13,251 ± 34,-83.7 ± 9,-10.8 ± 42,23.8 ± 18,–
O=C(N/N=C/c1ccccc1O)c1ccncc1 [Salinazid],20,4.76 ± 1.3,45.6 ± 14,16.7 ± 23,-3.5 ± 6.1,-34.3 ± 30,–,–
"O=c1cc(-c2ccccc2)oc2ccc3ccccc3c12 [5,6-Benzoflavone]",79.4,–,98 ± 14,–,–,-34.9 ± 4.2,–,–
N#C/C=C/C#N [Fumaronitrile],–,23.1 ± 6.4,8.38 ± 7.6,-12.4 ± 34,-104 ± 7.3,193 ± 39,3.3 ± 0.42,32.9
CN(C)c1ccc(SC#N)cc1 [4-(Dimethylamino)phenylthiocyanate],–,65 ± 18,87.8 ± 8.9,1.57 ± 29,-101 ± 5.4,73.3 ± 36,3.84 ± 0.25,34.2
"S=C(NC1CCCCC1)NC1CCCCC1 [N,N'-Dicyclohexylthiourea]",85.9,53.1 ± 25,84.8 ± 36,-53.1 ± 24,5.83 ± 10,82 ± 95,–,–
COP(=O)(OC)OC(Br)C(Cl)(Cl)Br (centres undefined) [Naled],–,46.5 ± 3.1,8.61 ± 7.6,-3.08 ± 5.3,-89.9 ± 2.4,307 ± 93,0.93 ± 0.12,31.8
COc1ccc(C(=O)/C(Br)=C\C(=O)O)cc1 [Cytembena],–,57 ± 12,33.2 ± 4.5,12.2 ± 14,-95.5 ± 18,417 ± 100,79.8 ± 9.2,37.1
CNc1ccc(O)cc1 [4-(Methylamino)phenol Sulfate],46.7,27.3 ± 3.8,8.27 ± 13,-10.9 ± 3,-82.7 ± 14,65.8 ± 4.2,0.16 ± 0.06,–
COc1cccc2c1C(=O)c1c(O)c3c(c(O)c1C2=O)C[C@@](O)(C(=O)CO)C[C@@H]3O[C@H]1C[C@H](N)[C@H](O)[C@H](C)O1 [Doxorubicin*],–,11.3 ± 1.3,31.2 ± 4.9,-21.7 ± 10,-92.2 ± 5,860 ± 140,0.9 ± 0.1,7.94
O=c1[nH]sc2cc(Cl)ccc12 [Ticlatone],21.6,13.2 ± 2.4,92.2 ± 7.7,-0.22 ± 12,-90.5 ± 5.6,55.4 ± 80,0.65 ± 0.18,–
"O=c1ssc(Cl)c1Cl [4,5-Dichloro-3H-1,2-dithiol-3-one]",–,37.8 ± 11,24.5 ± 3.5,-36.4 ± 2.7,-102 ± 9.4,92.3 ± 9.5,1.4 ± 0.39,21.3
CN(C)S(=O)(=O)N(SC(F)(Cl)Cl)c1ccccc1 [Dichlofluanid],–,27.2 ± 1.8,19.9 ± 4.2,62.1 ± 23,-92.1 ± 5,169 ± 52,1.96 ± 0.48,15.8
c1ccc(CCNc2nc(-c3ccccc3)cs2)cc1 [Fanetizole],–,41.4 ± 2.8,45.8 ± 14,35 ± 23,-113 ± 17,119 ± 37,40 ± 4.6,33.2
O=C1OC(CCN2CCCCC2)OC1(c1ccccc1)c1ccccc1 (centres undefined) [Pipoxolan hydrochloride],–,33.5 ± 2.7,0,-49.6 ± 25,-104 ± 2.6,107 ± 83,4.43 ± 1.9,20.7
"Cc1c2ccccc2c(C)c2c1ccc1ccccc12 [7,12-Dimethylbenzanthracene]",–,57 ± 12,129 ± 15,-47.7 ± 5.3,-86.2 ± 6.7,69 ± 29,19.4 ± 11,29.6
"CCCCNC(=O)OCC#CI [Carbamic acid, butyl-, 3-iodo-2-propynyl ester]",–,37.1 ± 4.7,20.3 ± 4.5,64.6 ± 18,-92.5 ± 3.8,133 ± 50,1.05 ± 0.13,27.3
"c1ccc2sc(SSN3CCOCC3)nc2c1 [2-(Morpholin-4-yldithio)-1,3-benzothiazole]",59.9,–,58 ± 8.8,–,–,57.3 ± 29,–,–
O=C(Nc1ccccc1)c1cc(Cl)ccc1O [5-Chlorosalicylanilide],35.5,25.2 ± 2.9,112 ± 7.5,77.4 ± 23,-46 ± 19,-20.1 ± 52,–,–
O=[N+]([O-])c1ccc(Oc2ccc(C(F)(F)F)cc2[N+](=O)[O-])cc1 [Fluorodifen],43.1,29.6 ± 5.3,109 ± 12,2.81 ± 12,-4.44 ± 7.7,45.8 ± 80,–,–
"C=CC(=O)OCCCCCCOC(=O)C=C [1,6-Hexanediol diacrylate]",–,43 ± 2.8,9.97 ± 9.4,9.01 ± 17,-106 ± 3.3,343 ± 90,50.1,35.5
CC1COc2ccccc2N1C(=O)C(Cl)Cl (centres undefined) [Benoxacor],79.8,46.5 ± 3.1,136 ± 40,9.43 ± 16,5.74 ± 9.9,33.2 ± 15,–,–
O=[N+]([O-])c1cc(N(CCO)CCO)ccc1NCCO [HC Blue 2],66.8,–,38.4 ± 82,0,-49.3 ± 1.9,0,18.7 ± 3.4,–
